Assay results: patent US20210337789A1, “Derivatives of m-Guaiacol, Their Preparation and Their Uses” (Universite de Caen Normandie, priority 2018, published 2021)

What was measured:
[1] = system: K. pneumoniae strains presenting high levels of resistance; assay: Bacterial growth on K. pneumoniae strains presenting high levels of resistance; format: cell-based, Klebsiella pneumoniae; set-up: key to Effects (0 < 1 < 2 < 3): 0 = no effect; 1 = pure only; 2 = several concs; 3 = strong at each; key to Δ DO: change in optical density measured at 600 nm; settings: for Effects (0 < 1 < 2 < 3): molecules at 1, 0.5 and 0.1 mg/ml, triclosan at 0.1 mg/ml
Procedure: (§1) The bacterial growth is evaluated by measuring the optical density (DO) at 600 nm using NanoDrop.
(§2) This ratio permits a classification of the molecules in 4 effect levels: • 0=no effect observed; • 1=effect observed only when the molecule is tested pure; • 2=effect observed at several concentrations, but which gradually decreases the dilutions; • 3=strong effect observed at each concentration of molecule tested.
(§3) Compounds of the invention were tested on 4 strains of E. coli, 3 strains of K. pneumoniae and 4 strains of S. aureus with the resistance profiles below.

[2] = system: S. aureus strains presenting high levels of resistance; assay: Bacterial growth on S. aureus strains presenting high levels of resistance; format: cell-based, Staphylococcus aureus; set-up: key to Effects (0 < 1 < 2 < 3): 0 = no effect; 1 = pure only; 2 = several concs; 3 = strong at each; key to Δ DO: change in optical density measured at 600 nm; settings: for Effects (0 < 1 < 2 < 3): molecules at 1, 0.5 and 0.1 mg/ml, triclosan at 0.1 mg/ml
Procedure: as §1, §2, §3

Staphylococcus aureus = assay: Bacterial growth screening on wild-type phenotype strain, S. aureus; format: cell-based
Procedure: as §1, §2
(§4) A screening of molecules of the invention on several wild-type phenotype strains has been carried out.
(§5) The strains initially selected are: • Gram+: Streptococcus equi subsp zooepidemicus and Staphylococcus aureus • Gram−: Escherichia coli, Klebsiella pneumoniae and Stenotrophomonas maltophila.

[3] = system: Stenotrophomonas maltophila; assay: Bacterial growth screening on wild-type phenotype strain, S. maltophila; format: cell-based
Procedure: as §1, §2, §4, §5

[4] = system: Streptococcus equi subsp zooepidemicus; assay: Bacterial growth screening on wild-type phenotype strain, S. zooepidemicus; format: cell-based
Procedure: as §1, §2, §4, §5

Escherichia coli = assay: Bacterial growth screening on wild-type phenotype strain, E. coli; format: cell-based
Procedure: as §1, §2, §4, §5

[5] = system: KB cells (epidermoid carcinoma); assay: In vitro cytotoxicity, cell proliferation test (MTS) on KB cells; format: cell-based; settings: Homo sapiens, KB cells, triplicate, 72 hours of exposure, with respect to DMSO control, read-out: percentage of inhibition of cell growth
Procedure: The human cell strain KB (epidermoid carcinoma) was obtained from the NCI (National Cancer Institute) and cultivated in the D-MEM medium added with 10% of foetal bovine serum (Invitrogen) in the presence of penicillin, streptomycin and fungizone in flasks of […] under CO2 at 5%. The cells were deposited on tissue culture microplates with 96 wells and a density of 650 cells/well in 200 μl of medium and treated 24 hours later with compounds of the invention dissolved in DMSO at concentrations going from 0.5 nM to 10 μM using a Biomek 3000 (Beckman-Coulter) automaton. The controls received the same volume of DMSO (1% of final volume). After 72 hours of exposure, the MTS reagent (Celltiter 96Aqueous One solution, Promega) was added and incubated for 3 hours at 37° C.: the absorbance was measured at 490 nm and the results of inhibition of the cell proliferation were calculated according to the ratio [(1−(OD490treated/OD490control))×100].
Results: Cytotoxicity at 10^−5 and 10^−6M on Triplicate KB Cells, Measured after 72 Hours of Exposure.
The percentage of inhibition of cell growth with respect to the cells receiving the same quantity of DMSO is outlined in the table below.

Klebsiella pneumoniae = assay: Bacterial growth screening on wild-type phenotype strain, K. pneumoniae; format: cell-based
Procedure: as §1, §2, §4, §5

androgenic receptors = target: T1, androgenic receptors (Homo sapiens, UniProt P10275); assay: Affinity test for androgenic receptors, inhibition of bonding of radioactive marked testosterone; format: binding; settings: 10^−5 M, greater than 50% considered significant, read-out: % of inhibition (average of the two measurements)
T1 sequence (P10275 1-920): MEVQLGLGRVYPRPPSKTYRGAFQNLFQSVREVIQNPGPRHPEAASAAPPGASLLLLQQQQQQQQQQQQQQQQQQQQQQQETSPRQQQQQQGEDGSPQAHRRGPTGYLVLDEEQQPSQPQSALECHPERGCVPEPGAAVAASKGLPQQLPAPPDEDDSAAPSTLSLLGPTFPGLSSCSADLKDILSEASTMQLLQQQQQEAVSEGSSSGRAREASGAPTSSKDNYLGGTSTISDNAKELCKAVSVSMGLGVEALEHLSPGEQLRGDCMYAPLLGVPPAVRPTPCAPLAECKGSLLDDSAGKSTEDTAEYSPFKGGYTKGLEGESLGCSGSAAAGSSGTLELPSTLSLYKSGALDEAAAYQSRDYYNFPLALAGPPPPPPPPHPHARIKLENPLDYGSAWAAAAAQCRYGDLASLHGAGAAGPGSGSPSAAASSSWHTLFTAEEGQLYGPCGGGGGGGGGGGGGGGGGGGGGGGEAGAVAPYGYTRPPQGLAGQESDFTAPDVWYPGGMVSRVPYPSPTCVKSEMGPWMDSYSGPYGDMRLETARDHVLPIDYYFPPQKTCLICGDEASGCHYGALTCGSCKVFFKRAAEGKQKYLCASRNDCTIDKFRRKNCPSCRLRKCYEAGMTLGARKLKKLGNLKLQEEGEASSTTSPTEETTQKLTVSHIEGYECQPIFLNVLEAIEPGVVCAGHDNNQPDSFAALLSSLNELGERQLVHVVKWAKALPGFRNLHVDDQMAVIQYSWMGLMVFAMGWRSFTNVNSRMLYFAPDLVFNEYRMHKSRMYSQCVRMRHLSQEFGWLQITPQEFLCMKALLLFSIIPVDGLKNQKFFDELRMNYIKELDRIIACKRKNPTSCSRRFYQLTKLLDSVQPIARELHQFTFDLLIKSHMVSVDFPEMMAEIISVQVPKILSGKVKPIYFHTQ

- inhibition at 10 µM (androgenic receptors): 3.1%
Compound: COc1cc(O)c(Br)c(Cl)c1F [sr7615]
- Δ DO ([1]; K. pneumoniae Strain 1, 0.1 mg/ml): 0.025
- Δ DO ([1]; K. pneumoniae Strain 1, 0.5 mg/ml): 0.490
- Δ DO ([1]; K. pneumoniae Strain 1, 1 mg/ml): 0.640
- Effects (0 < 1 < 2 < 3) ([1]; K. pneumoniae Strain 1): 2
- Δ DO ([1]; K. pneumoniae Strain 2, 0.1 mg/ml): −0.021
- Δ DO ([1]; K. pneumoniae Strain 2, 0.5 mg/ml): 0.518
- Δ DO ([1]; K. pneumoniae Strain 2, 1 mg/ml): 0.621
- Effects (0 < 1 < 2 < 3) ([1]; K. pneumoniae Strain 2): 2
- Δ DO ([1]; K. pneumoniae Strain 3, 0.1 mg/ml): 0.134
- Δ DO ([1]; K. pneumoniae Strain 3, 0.5 mg/ml): 0.598
- Δ DO ([1]; K. pneumoniae Strain 3, 1 mg/ml): 0.913
- Effects (0 < 1 < 2 < 3) ([1]; K. pneumoniae Strain 3): 2
- Δ DO ([2]; S. aureus Strain 1, 0.1 mg/ml): 0.250
- Δ DO ([2]; S. aureus Strain 1, 0.5 mg/ml): 0.434
- Δ DO ([2]; S. aureus Strain 1, 1 mg/ml): 0.428
- Effects (0 < 1 < 2 < 3) ([2]; S. aureus Strain 1): 3
- Δ DO ([2]; S. aureus Strain 2, 0.1 mg/ml): 0.308
- Δ DO ([2]; S. aureus Strain 2, 0.5 mg/ml): 0.412
- Δ DO ([2]; S. aureus Strain 2, 1 mg/ml): 0.382
- Effects (0 < 1 < 2 < 3) ([2]; S. aureus Strain 2): 3
- Δ DO ([2]; S. aureus Strain 3, 0.1 mg/ml): 0.310
- Δ DO ([2]; S. aureus Strain 3, 0.5 mg/ml): 0.482
- Δ DO ([2]; S. aureus Strain 3, 1 mg/ml): 0.445
- Effects (0 < 1 < 2 < 3) ([2]; S. aureus Strain 3): 3
- Δ DO ([2]; S. aureus Strain 4, 0.1 mg/ml): 0.351
- Δ DO ([2]; S. aureus Strain 4, 0.5 mg/ml): 0.450
- Δ DO ([2]; S. aureus Strain 4, 1 mg/ml): 0.418
- Effects (0 < 1 < 2 < 3) ([2]; S. aureus Strain 4): 3
- Effect level, S. aureus (Staphylococcus aureus): 3
- Effect level, S. maltophila [3]: 2
- Effect level, S. zooepidemicus [4]: 3
- Effect level, E. coli (Escherichia coli): 3
- inhibition at 10 µM ([5]; 10^−5 M): 0%
- inhibition at 1 µM ([5]; 10^−6 M): 0%
- Effect level, K. pneumoniae (Klebsiella pneumoniae): 2
